Source: patent US5859019A, “Methods for protecting against cardiac ischemia by administering adenosine A2a receptor antagonists” (priority 1997, dated 1999)

Legend:
Type in all cases: cell-based
[1] = tested on: ventricular cells cultured from chick embryos; assay: 45Ca uptake in cultured ventricular cells; settings: for Calcium influx into the cultured cells: isoproterenol 0.3 μM, forskolin 1 μM, BayK 8644 0.1 μM, data not shown
Procedure: (§1) Determination of ^45 Ca uptake was made according to a modification of previously described method (20). Cultures were incubated with L-(3, 4, 5-^3 H, N)-leucine (152.2 Ci/mmol) for a 24 hour prior to ^45 Ca uptake. [^3 H] leucine incorporated into the cellular protein allowed normalization of ^45 Ca content to mg cell protein. After incubation with ^45 Ca-containing medium, cells were then washed free of ^45 Ca and solubilized for 2 hours with 1% sodium dodecyl sulfate and 10 mM sodium borate and the levels of ^3 H and ^45 Ca were determined. For all data comparing the effect of different agents on ^45 Ca uptake, one-way ANOVA analysis followed by group comparison with t-test was carried out at each time point of the ^45 Ca uptake. Cyclic AMP level was determined according to a previously described radioimmunoassay (27).

[2] = tested on: ventricular cells cultured from chick embryos; assay: Hypoxia-induced injury / preconditioning of cultured ventricular cells (% cells killed, CK released); settings: for Ability to replace preconditioning hypoxia (protection against injury by ninety-minute hypoxia; % cells killed, CK released): agent given for 5 min in place of preconditioning hypoxia, before 90-min hypoxia, adenosine 10 μM, R-PIA 10 μM; for Ability to replace preconditioning hypoxia (protection against injury by ninety-minute hypoxia; % cells killed, CK released) / Effect on protection by preconditioning hypoxia (% cells killed, CK released): CGS21680 1 μM; for Effect on protection by preconditioning hypoxia (% cells killed, CK released): agent present during five-minute preconditioning hypoxia, CSC 1 μM, 8-SPT 100 μM, isoproterenol 0.3 μM, forskolin 1 μM, BayK 8644 0.1 μM
Procedure: Ventricular cells were cultured from chick embryos 14 days in ovo, according to a previously described procedure (20, 27). Cells were plated at a density of 400,000 cells per ml and cultivated in a humidified 5% CO2 -95% air mixture at 37° C. […] For preconditioning studies, the medium was changed to a HEPES-buffered medium containing (mM) 139 NaCl, 4.7 KCl, 0.5 MgCl2, 0.9 CaCl2, 5 HEPES (N-2-hydroxyethylpiperazine-N'-2-ethanesulfonic acid) and 2% fetal bovine serum, pH=7.4, 37° C. before exposing cells to the various conditions at 37° C. Control cells were maintained in the HEPES-buffered media under room air. Hypoxia was produced by placing the cells in a hypoxic incubator (NuAire) where O2 was replaced by N2. The % O2 was monitored by both an oxygen Fyrite Gas Analyzer (Bacharach) and an oxygen analyzer (Model OX630, Engineered Systems & Designs). Preconditioning was induced by exposing the cells to five minutes of hypoxia, termed preconditioning hypoxia, prior to a second ninety-minute hypoxia. Cells not subjected to preconditioning were exposed to ninety minutes of hypoxia only (nonpreconditioned cells). The extracellular pH was similarly maintained at 7.4 by HEPES in both preconditioned and nonpreconditioned cells. Determination of basal level of cell injury was made after parallel incubation of control cells under normal % O2. For preconditioned and nonpreconditioned cells, determination of cell injury was made at the end of the ninety-minute hypoxic period.
The extent of hypoxia-induced injury to the ventricular cell was quantitatively determined by the percentages of cells killed and by the amount of creatine kinase (CK) released into the media. To quantitate the % cells killed, cells were exposed to a trypsin-EDTA Hanks' balanced salt solution for 10 minutes for detachment after the various treatment, followed by centrifugation (300 × g for 10 minutes) and resuspension in culture media for counting in a hemocytometer. Only live cells sedimented and the cells counted represented those that survived (29). None of the sedimented cells subsequently counted included trypan blue. […] There was no protein or CK in the culture media following a second 300 × g centrifugation of resuspended cells previously treated with trypsin-EDTA. […] In contrast, the trypsin-EDTA media from cells exposed to 90 minutes of hypoxia contained substantial amount of proteins (0.15±0.03 mg, n=9) and CK activity (16±3 unit/mg protein, n=8). […] Because trypsin may cause further proteolysis of proteins and CK, the amount of protein and CK retained by the damaged cells in the trypsin-EDTA media may not accurately reflect those associated with the damaged cells. In support of the notion that exposure to 90 minutes of hypoxia caused significant cell injury and loss of membrane integrity, there was also marked release of LDH (hypoxia-exposed cells, 35.5±2.7, unit/mg, n=8, ±S.E. vs. control cells, 6.1±0.4 unit/mg, n=8) and proteins (hypoxia-exposed cells, 0.15±0.03 mg, n=8 vs. control cells, 0.034±0.01 mg, n=8) from the cells incubated under prolonged hypoxia. Thus, the cell viability assay separated out the hypoxia-damaged from the control normoxia-exposed cells. […] The amount of CK was measured as enzyme activity (unit/mg), and increases in CK activity above the control level were determined. The percentage of cells killed was calculated as the number of cells obtained from the control group (representing cells not subjected to any hypoxia or drug treatment) minus the number of cells from the treatment group divided by number of cells in control group multiplied by 100%.
To investigate the role of adenosine in mediating the preconditioning effect, the ventricular cells, instead of being exposed to the brief hypoxia, were incubated with adenosine (10 μM) for 5 minutes prior to the ninety minute hypoxia. In adenosine-treated cells, media were replaced with adenosine-free media for ten minutes prior to a ninety-minute hypoxic exposure. […]

[3] = tested on: ventricular cells cultured from chick embryos; assay: Cyclic AMP level in cultured ventricular cells (radioimmunoassay); settings: Gallus gallus; isoproterenol 0.3 μM, forskolin 1 μM; n=6, ±S.E.; read-out: % increase in cAMP level
Procedure: as §1

C=C[C@@]1(C)CC(=O)[C@]2(O)[C@@]3(C)[C@@H](O)CCC(C)(C)[C@@H]3[C@H](O)[C@H](OC(C)=O)[C@@]2(C)O1 [forskolin]
Calcium influx into the cultured cells [1]: induced increased calcium influx | Ability to replace preconditioning hypoxia (protection against injury by ninety-minute hypoxia; % cells killed, CK released) [2]: Neither isoproterenol, forskolin nor BayK8644 had any effect on the level of protection | Effect on protection by preconditioning hypoxia (% cells killed, CK released) [2]: caused an increase in % cells killed and amount of CK released | activation at 1 µM [3]: 54.8 ± 9.7%

CC(C)NCC(O)c1ccc(O)c(O)c1 (stereo not drawn) [isoproterenol]
Calcium influx into the cultured cells [1]: induced increased calcium influx | Ability to replace preconditioning hypoxia (protection against injury by ninety-minute hypoxia; % cells killed, CK released) [2]: Neither isoproterenol, forskolin nor BayK8644 had any effect on the level of protection | Effect on protection by preconditioning hypoxia (% cells killed, CK released) [2]: caused an increase in % cells killed and amount of CK released | activation at 0.3 µM [3]: 228 ± 31%

COC(=O)C1=C(C)NC(C)=C(C(=O)OC)C1c1ccccc1[N+](=O)[O-] [nifedipine]
Effect on increase in calcium uptake by isoproterenol, forskolin and BayK 8644 ([1]; nifedipine): blocked the increase in calcium uptake | Ability to replace preconditioning hypoxia (protection against injury by ninety-minute hypoxia; % cells killed, CK released) [2]: did not simulate preconditioning | Effect on attenuation of preconditioning by isoproterenol, forskolin and BayK 8644 ([2]; nifedipine 1 μM during preconditioning hypoxia): abolished | Effect on CGS21680-induced attenuation of preconditioning ([2]; nifedipine 1 μM with CGS21680 during preconditioning hypoxia): abolished the CGS21680-induced attenuation of cardioprotection
